# Measurements taken from US9682995B2, “Amino-substituted isothiazoles” (BAYER PHARMA AKTIENGESELLSCHAFT, priority 2013, dated 2017).
# How the values were obtained:
# Assay in all cases: Kinase Profiling (KINOMEscan)
# Assay type in all cases: binding
# [1] = molecular target: 456 kinases (of these 395 non-mutant kinases) (Homo sapiens, UniProt P22607); conditions: FGFR3; 10 μM
# [2] = molecular target: 456 kinases (of these 395 non-mutant kinases) (Homo sapiens, UniProt P54764); conditions: EPHA4; 10 μM
# 456 kinases (of these 395 non-mutant kinases) (Homo sapiens, UniProt P54764), sequence (P54764 20-986 limits assumed, change not shown): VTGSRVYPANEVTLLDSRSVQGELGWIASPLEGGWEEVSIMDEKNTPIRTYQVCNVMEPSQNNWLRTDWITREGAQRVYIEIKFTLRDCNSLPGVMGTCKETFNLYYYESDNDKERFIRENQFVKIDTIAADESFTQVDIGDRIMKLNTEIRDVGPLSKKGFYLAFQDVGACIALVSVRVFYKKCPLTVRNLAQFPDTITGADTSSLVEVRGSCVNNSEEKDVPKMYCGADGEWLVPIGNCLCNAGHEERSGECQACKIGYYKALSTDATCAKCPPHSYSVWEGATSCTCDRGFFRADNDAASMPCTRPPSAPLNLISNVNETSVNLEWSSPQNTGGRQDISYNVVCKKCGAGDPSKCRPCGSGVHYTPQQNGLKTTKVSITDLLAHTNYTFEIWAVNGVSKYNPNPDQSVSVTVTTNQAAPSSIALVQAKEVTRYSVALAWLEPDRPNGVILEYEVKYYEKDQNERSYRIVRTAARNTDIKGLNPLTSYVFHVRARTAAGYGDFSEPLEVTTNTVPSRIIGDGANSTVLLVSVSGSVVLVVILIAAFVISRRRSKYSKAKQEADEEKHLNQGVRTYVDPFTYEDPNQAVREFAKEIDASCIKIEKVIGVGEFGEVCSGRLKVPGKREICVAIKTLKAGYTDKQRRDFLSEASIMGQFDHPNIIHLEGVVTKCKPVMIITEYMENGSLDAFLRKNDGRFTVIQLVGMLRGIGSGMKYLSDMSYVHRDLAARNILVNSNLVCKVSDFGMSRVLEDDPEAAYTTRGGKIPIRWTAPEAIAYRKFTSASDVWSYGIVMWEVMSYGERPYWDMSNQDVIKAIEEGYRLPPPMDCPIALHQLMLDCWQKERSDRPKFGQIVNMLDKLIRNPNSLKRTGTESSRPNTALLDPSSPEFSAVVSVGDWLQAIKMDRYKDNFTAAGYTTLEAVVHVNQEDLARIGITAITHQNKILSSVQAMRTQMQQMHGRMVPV
# [3] = molecular target: 456 kinases (of these 395 non-mutant kinases) (Homo sapiens, UniProt Q6DT37); conditions: DMPK2; 10 μM
# [4] = molecular target: 456 kinases (of these 395 non-mutant kinases) (Homo sapiens, UniProt P0C1S8); conditions: WEE2; 10 μM
# [5] = molecular target: 456 kinases (of these 395 non-mutant kinases) (Homo sapiens, UniProt Q56UN5); conditions: YSK4; 10 μM
# [6] = molecular target: 456 kinases (of these 395 non-mutant kinases) (Homo sapiens, UniProt P00519, M351T); conditions: ABL1(M351T)-phosphorylated; 10 μM
# [7] = molecular target: 456 kinases (of these 395 non-mutant kinases) (Homo sapiens, UniProt Q02779); conditions: MLK2; 10 μM
# [8] = molecular target: 456 kinases (of these 395 non-mutant kinases) (Homo sapiens, UniProt P10721, D816V); conditions: KIT(D816V); 10 μM
# 456 kinases (of these 395 non-mutant kinases) (Homo sapiens, UniProt P10721, D816V), sequence (P10721 26-976 D816V limits assumed): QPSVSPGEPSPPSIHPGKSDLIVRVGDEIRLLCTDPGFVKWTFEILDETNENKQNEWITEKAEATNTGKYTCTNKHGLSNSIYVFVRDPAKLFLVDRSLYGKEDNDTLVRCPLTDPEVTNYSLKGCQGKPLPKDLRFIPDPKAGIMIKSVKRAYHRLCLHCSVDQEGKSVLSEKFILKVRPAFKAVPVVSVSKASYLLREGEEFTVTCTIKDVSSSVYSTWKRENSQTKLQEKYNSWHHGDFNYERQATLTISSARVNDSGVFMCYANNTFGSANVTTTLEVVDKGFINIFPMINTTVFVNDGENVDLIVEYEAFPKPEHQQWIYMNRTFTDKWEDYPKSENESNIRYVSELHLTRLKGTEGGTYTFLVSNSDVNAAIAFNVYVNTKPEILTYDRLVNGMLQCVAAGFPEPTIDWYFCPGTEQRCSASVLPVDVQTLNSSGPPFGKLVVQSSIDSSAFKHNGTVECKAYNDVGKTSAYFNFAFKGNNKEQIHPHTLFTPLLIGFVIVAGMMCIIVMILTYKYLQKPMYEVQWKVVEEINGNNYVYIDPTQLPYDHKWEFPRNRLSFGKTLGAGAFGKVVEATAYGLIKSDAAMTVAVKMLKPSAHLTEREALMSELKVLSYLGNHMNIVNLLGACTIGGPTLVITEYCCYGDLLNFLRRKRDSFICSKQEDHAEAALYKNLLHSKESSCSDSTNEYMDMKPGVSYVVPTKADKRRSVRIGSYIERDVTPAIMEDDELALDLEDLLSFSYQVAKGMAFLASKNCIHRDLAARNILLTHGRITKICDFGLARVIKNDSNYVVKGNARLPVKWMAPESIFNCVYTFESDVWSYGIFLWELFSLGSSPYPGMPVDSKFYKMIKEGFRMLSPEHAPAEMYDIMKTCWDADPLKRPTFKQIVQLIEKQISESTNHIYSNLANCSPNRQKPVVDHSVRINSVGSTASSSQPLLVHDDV
# [9] = molecular target: 456 kinases (of these 395 non-mutant kinases) (Homo sapiens, UniProt O00750); conditions: PIK3C2B; 10 μM
# [10] = molecular target: 456 kinases (of these 395 non-mutant kinases) (Homo sapiens, UniProt O15075); conditions: DCAMKL1; 10 μM
# [11] = molecular target: 456 kinases (of these 395 non-mutant kinases) (Homo sapiens, UniProt P42336, C420R); conditions: PIK3CA(C420R); 10 μM
# [12] = molecular target: 456 kinases (of these 395 non-mutant kinases) (Homo sapiens, UniProt P57059); conditions: SIK; 10 μM
# [13] = molecular target: 456 kinases (of these 395 non-mutant kinases) (Homo sapiens, UniProt P06241); conditions: FYN; 10 μM
# 456 kinases (of these 395 non-mutant kinases) (Homo sapiens, UniProt P06241), sequence (P06241 2-537 limits assumed, change not shown): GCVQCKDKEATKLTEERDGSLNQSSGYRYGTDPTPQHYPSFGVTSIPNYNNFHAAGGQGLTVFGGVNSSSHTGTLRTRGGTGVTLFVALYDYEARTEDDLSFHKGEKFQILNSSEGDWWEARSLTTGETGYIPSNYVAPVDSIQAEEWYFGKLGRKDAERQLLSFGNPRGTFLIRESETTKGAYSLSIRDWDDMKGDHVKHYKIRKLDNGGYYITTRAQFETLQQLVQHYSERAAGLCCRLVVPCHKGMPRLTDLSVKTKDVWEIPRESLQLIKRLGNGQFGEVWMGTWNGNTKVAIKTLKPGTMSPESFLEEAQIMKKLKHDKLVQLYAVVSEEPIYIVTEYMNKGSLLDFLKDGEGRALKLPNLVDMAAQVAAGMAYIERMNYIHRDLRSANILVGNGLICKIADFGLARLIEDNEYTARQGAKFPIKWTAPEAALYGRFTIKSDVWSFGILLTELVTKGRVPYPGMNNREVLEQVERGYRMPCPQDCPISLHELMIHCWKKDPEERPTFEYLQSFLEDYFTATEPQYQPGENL
# [14] = molecular target: 456 kinases (of these 395 non-mutant kinases) (Homo sapiens, UniProt Q13237); conditions: PRKG2; 10 μM
# [15] = molecular target: 456 kinases (of these 395 non-mutant kinases) (Homo sapiens, UniProt Q13873); conditions: BMPR2; 10 μM
# [16] = molecular target: 456 kinases (of these 395 non-mutant kinases) (Homo sapiens, UniProt O95747); conditions: OSR1; 10 μM
# 456 kinases (of these 395 non-mutant kinases) (Homo sapiens, UniProt O95747), sequence (O95747 2-527 limits assumed, change not shown): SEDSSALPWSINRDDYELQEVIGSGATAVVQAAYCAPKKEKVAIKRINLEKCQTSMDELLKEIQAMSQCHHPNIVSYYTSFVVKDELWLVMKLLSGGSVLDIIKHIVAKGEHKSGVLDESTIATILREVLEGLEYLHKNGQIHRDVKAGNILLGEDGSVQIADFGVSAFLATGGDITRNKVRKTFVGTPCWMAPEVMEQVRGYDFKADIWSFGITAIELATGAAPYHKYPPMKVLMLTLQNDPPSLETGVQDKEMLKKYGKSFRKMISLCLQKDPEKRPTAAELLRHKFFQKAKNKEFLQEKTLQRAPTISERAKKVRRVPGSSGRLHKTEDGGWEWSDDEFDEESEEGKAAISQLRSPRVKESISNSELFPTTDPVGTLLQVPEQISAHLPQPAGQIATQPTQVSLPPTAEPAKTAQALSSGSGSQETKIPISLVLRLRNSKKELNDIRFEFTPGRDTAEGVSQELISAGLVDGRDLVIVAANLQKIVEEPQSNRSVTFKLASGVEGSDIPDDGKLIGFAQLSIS
# [17] = molecular target: 456 kinases (of these 395 non-mutant kinases) (Homo sapiens, UniProt Q9Y616); conditions: IRAK3; 10 μM
# [18] = molecular target: 456 kinases (of these 395 non-mutant kinases) (Homo sapiens, UniProt Q6ZN16); conditions: MAP3K15; 10 μM
# [19] = molecular target: 456 kinases (of these 395 non-mutant kinases) (Homo sapiens, UniProt P00533, G719S); conditions: EGFR(G719S); 10 μM
# [20] = molecular target: 456 kinases (of these 395 non-mutant kinases) (Homo sapiens, UniProt Q14289); conditions: PYK2; 10 μM
# [21] = molecular target: 456 kinases (of these 395 non-mutant kinases) (Homo sapiens, UniProt Q8NI60); conditions: ADCK3; 10 μM
# 456 kinases (of these 395 non-mutant kinases) (Homo sapiens, UniProt Q8NI60), sequence (Q8NI60 163-647 limits assumed, change not shown): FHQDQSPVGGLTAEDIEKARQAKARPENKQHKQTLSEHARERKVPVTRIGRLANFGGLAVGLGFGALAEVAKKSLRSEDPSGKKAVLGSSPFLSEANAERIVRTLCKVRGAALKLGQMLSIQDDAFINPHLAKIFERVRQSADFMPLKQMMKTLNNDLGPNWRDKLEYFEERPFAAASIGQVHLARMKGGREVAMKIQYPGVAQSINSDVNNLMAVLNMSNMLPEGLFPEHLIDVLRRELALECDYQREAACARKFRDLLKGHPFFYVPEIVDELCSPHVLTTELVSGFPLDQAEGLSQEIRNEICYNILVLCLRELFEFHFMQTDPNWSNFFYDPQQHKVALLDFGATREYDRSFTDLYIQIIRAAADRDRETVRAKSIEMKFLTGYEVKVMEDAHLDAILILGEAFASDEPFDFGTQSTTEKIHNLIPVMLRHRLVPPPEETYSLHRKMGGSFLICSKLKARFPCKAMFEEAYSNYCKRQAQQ
# [22] = molecular target: 456 kinases (of these 395 non-mutant kinases) (Homo sapiens, UniProt O75385); conditions: ULK1; 10 μM
# [23] = molecular target: 456 kinases (of these 395 non-mutant kinases) (Homo sapiens, UniProt P06213); conditions: INSR; 10 μM
# [24] = molecular target: 456 kinases (of these 395 non-mutant kinases) (Homo sapiens, UniProt Q9H0K1); conditions: SIK2; 10 μM
# [25] = molecular target: 456 kinases (of these 395 non-mutant kinases) (Homo sapiens, UniProt Q9HCP0); conditions: CSNK1G1; 10 μM
# [26] = molecular target: 456 kinases (of these 395 non-mutant kinases) (Homo sapiens, UniProt Q6PHR2); conditions: ULK3; 10 μM
# [27] = molecular target: 456 kinases (of these 395 non-mutant kinases) (Homo sapiens, UniProt P07947); conditions: YES; 10 μM
# 456 kinases (of these 395 non-mutant kinases) (Homo sapiens, UniProt P07947), sequence (P07947 2-543 limits assumed, change not shown): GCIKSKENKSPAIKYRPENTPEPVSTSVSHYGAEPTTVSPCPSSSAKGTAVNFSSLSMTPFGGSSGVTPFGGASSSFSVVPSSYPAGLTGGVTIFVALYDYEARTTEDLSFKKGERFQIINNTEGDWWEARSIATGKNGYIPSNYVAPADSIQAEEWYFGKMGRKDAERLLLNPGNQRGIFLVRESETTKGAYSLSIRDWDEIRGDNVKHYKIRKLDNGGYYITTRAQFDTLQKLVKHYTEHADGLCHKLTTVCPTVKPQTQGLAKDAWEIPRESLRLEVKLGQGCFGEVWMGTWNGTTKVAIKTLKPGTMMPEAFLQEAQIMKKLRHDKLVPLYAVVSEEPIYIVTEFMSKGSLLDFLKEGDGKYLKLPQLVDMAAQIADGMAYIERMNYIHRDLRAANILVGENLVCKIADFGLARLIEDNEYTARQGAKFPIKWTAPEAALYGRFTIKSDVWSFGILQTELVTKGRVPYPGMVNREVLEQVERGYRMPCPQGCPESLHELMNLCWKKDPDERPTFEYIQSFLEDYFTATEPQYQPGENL
# [28] = molecular target: 456 kinases (of these 395 non-mutant kinases) (Homo sapiens, UniProt Q16539); conditions: p38-alpha; 10 μM
# 456 kinases (of these 395 non-mutant kinases) (Homo sapiens, UniProt Q16539), sequence (Q16539 2-360 limits assumed, change not shown): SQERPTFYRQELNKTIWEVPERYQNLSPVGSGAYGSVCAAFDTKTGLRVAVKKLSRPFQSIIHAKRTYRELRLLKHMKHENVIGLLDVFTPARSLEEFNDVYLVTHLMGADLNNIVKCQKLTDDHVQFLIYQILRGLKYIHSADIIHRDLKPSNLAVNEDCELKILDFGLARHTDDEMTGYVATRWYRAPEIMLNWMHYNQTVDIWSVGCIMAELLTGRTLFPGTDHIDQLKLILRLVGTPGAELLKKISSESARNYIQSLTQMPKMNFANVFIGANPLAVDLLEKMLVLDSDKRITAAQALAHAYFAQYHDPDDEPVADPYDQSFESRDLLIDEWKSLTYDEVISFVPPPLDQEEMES
# [29] = molecular target: 456 kinases (of these 395 non-mutant kinases) (Homo sapiens, UniProt Q08881); conditions: ITK; 10 μM
# [30] = molecular target: 456 kinases (of these 395 non-mutant kinases) (Homo sapiens, UniProt Q15139); conditions: PRKD1; 10 μM
# [31] = molecular target: 456 kinases (of these 395 non-mutant kinases) (Homo sapiens, UniProt Q92630); conditions: DYRK2; 10 μM
# [32] = molecular target: 456 kinases (of these 395 non-mutant kinases) (Homo sapiens, UniProt P00519, Y253F); conditions: ABL1(Y253F)-phosphorylated; 10 μM
smiles,measurement,setting,value
"CCc1ccccc1NC(=O)c1c(C)nsc1Nc1cnc2cc(F)ccc2n1 [Example 20, N-(2-Ethylphenyl)-5-[(6-fluoroquinoxalin-2-yl)amino]-3-methyl-1,2-thiazole-4-carboxamide]",% Ctrl @ 10 μM,[1],85 % Ctrl
same,% Ctrl @ 10 μM,[2],100 % Ctrl
same,% Ctrl @ 10 μM,[3],79 % Ctrl
same,% Ctrl @ 10 μM,[4],100 % Ctrl
same,% Ctrl @ 10 μM,[5],100 % Ctrl
same,% Ctrl @ 10 μM,[6],90 % Ctrl
same,% Ctrl @ 10 μM,[7],78 % Ctrl
same,% Ctrl @ 10 μM,[8],61 % Ctrl
same,% Ctrl @ 10 μM,[9],100 % Ctrl
same,% Ctrl @ 10 μM,[10],92 % Ctrl
same,% Ctrl @ 10 μM,[11],96 % Ctrl
same,% Ctrl @ 10 μM,[12],100 % Ctrl
same,% Ctrl @ 10 μM,[13],57 % Ctrl
same,% Ctrl @ 10 μM,[14],100 % Ctrl
same,% Ctrl @ 10 μM,[15],100 % Ctrl
same,% Ctrl @ 10 μM,[16],97 % Ctrl
same,% Ctrl @ 10 μM,[17],100 % Ctrl
same,% Ctrl @ 10 μM,[18],100 % Ctrl
same,% Ctrl @ 10 μM,[19],97 % Ctrl
same,% Ctrl @ 10 μM,[20],100 % Ctrl
same,% Ctrl @ 10 μM,[21],64 % Ctrl
same,% Ctrl @ 10 μM,[22],100 % Ctrl
same,% Ctrl @ 10 μM,[23],98 % Ctrl
same,% Ctrl @ 10 μM,[24],84 % Ctrl
same,% Ctrl @ 10 μM,[25],90 % Ctrl
same,% Ctrl @ 10 μM,[26],100 % Ctrl
same,% Ctrl @ 10 μM,[27],90 % Ctrl
same,% Ctrl @ 10 μM,[28],90 % Ctrl
same,% Ctrl @ 10 μM,[29],100 % Ctrl
same,% Ctrl @ 10 μM,[30],88 % Ctrl
same,% Ctrl @ 10 μM,[31],96 % Ctrl
same,% Ctrl @ 10 μM,[32],100 % Ctrl
